In the supplement of paper PMC10733146:

Assays:
Assay in all cases: viability relative to DMSO control (fraction); higher = less drug effect (more viable cells)
Conditions in all cases: 48 h
Venetoclax = compound: CC1(C)CCC(CN2CCN(c3ccc(C(=O)NS(=O)(=O)c4ccc(NCC5CCOCC5)c([N+](=O)[O-])c4)c(Oc4cnc5[nH]ccc5c4)c3)CC2)=C(c2ccc(Cl)cc2)C1 [Venetoclax]
Summary of the method: (§1)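 In 384-well plates with compounds pre-plated at five concentrations (one well per concentration), primary mononuclear tumour cells were plated at 4 × 10^4 cells per well. The cells came from blood or bone marrow by Ficoll isolation or from processed lymph node, and were used fresh or cryopreserved. Culture ran for 48 h at 37 °C and 5% CO2 in RPMI-1640 containing penicillin/streptomycin, L-glutamine and human serum. Viability was read as CellTiter-Glo luminescence, normalised to the median of 16 inner DMSO wells.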

Navitoclax = compound: CC1(C)CCC(c2ccc(Cl)cc2)=C(CN2CCN(c3ccc(C(=O)NS(=O)(=O)c4ccc(N[C@H](CCN5CCOCC5)CSc5ccccc5)c(S(=O)(=O)C(F)(F)F)c4)cc3)CC2)C1 [Navitoclax]
Summary of the method: as §1

Barasertib = compound: CCN(CCCOc1ccc2c(Nc3cc(CC(=O)Nc4cccc(F)c4)[nH]n3)ncnc2c1)CCOP(=O)(O)O [Barasertib]
Summary of the method: as §1

EPZ-6438 = compound: CCN(c1cc(-c2ccc(CN3CCOCC3)cc2)cc(C(=O)NCc2c(C)cc(C)[nH]c2=O)c1C)C1CCOCC1 [EPZ-6438]
Summary of the method: as §1

CPI-169 = compound: CCS(=O)(=O)N1CCC([C@@H](C)n2c(C)c(C(=O)NCc3c(OC)cc(C)[nH]c3=O)c3ccccc32)CC1 [CPI-169]
Summary of the method: as §1

[1] = compound: CCc1ccc(/C=C2/SC(=S)NC2=O)cc1
Summary of the method: as §1

[2] = compound: C[C@H](NC(=O)CCC(F)(F)F)C(=O)N[C@@H]1C(=O)N(CCO)c2ncccc2-c2ccccc21
Summary of the method: as §1

[3] = compound: C[C@H]1C[C@@H](n2c(Nc3ccc(OC(F)(F)F)cc3)nc3cc(CCC(=O)O)ccc32)CC(C)(C)C1
Summary of the method: as §1

Selinexor = compound: O=C(/C=C\n1cnc(-c2cc(C(F)(F)F)cc(C(F)(F)F)c2)n1)NNc1cnccn1 [Selinexor]
Summary of the method: as §1

[4] = compound: O=C(NO)c1cccc(C(=O)NCCc2ccccc2)c1
Summary of the method: as §1

Filgotinib = compound: O=C(Nc1nc2cccc(-c3ccc(CN4CCS(=O)(=O)CC4)cc3)n2n1)C1CC1 [Filgotinib]
Summary of the method: as §1

Thalidomide = compound: O=C1CCC(N2C(=O)c3ccccc3C2=O)C(=O)N1 [Thalidomide]
Summary of the method: as §1

Palbociclib = compound: CC(=O)c1c(C)c2cnc(Nc3ccc(N4CCNCC4)cn3)nc2n(C2CCCC2)c1=O [Palbociclib]
Summary of the method: as §1

I-BET-762 = compound: CCNC(=O)C[C@@H]1N=C(c2ccc(Cl)cc2)c2cc(OC)ccc2-n2c(C)nnc21 [I-BET-762]
Summary of the method: as §1

## primary AML patient cells (S006)
Venetoclax; 0.00064 µM
  viability: 0.943
Venetoclax; 0.0032 µM
  viability: 0.649
Venetoclax; 0.016 µM
  viability: 0.314
Venetoclax; 0.08 µM
  viability: 0.135
Venetoclax; 0.4 µM
  viability: 0.0687
Navitoclax; 0.0032 µM
  viability: 0.989
Navitoclax; 0.016 µM
  viability: 0.771
Navitoclax; 0.08 µM
  viability: 0.306
Navitoclax; 0.4 µM
  viability: 0.0666
Navitoclax; 2 µM
  viability: 0.0316
Barasertib; 0.0008 µM
  viability: 0.925
Barasertib; 0.004 µM
  viability: 0.872
Barasertib; 0.02 µM
  viability: 0.865
Barasertib; 0.1 µM
  viability: 0.621
Barasertib; 0.5 µM
  viability: 0.442
EPZ-6438; 0.024 µM
  viability: 1.03
EPZ-6438; 0.12 µM
  viability: 1.07
EPZ-6438; 0.6 µM
  viability: 1.1
EPZ-6438; 3 µM
  viability: 1.12
EPZ-6438; 15 µM
  viability: 1.15
CPI-169; 0.024 µM
  viability: 0.992
CPI-169; 0.12 µM
  viability: 0.982
CPI-169; 0.6 µM
  viability: 1.03
CPI-169; 3 µM
  viability: 1.01
CPI-169; 15 µM
  viability: 1.06
[1]; 0.024 µM
  viability: 0.827
[1]; 0.12 µM
  viability: 0.884
[1]; 0.6 µM
  viability: 0.929
[1]; 3 µM
  viability: 0.883
[1]; 15 µM
  viability: 0.833
[2]; 0.016 µM
  viability: 1.13
[2]; 0.08 µM
  viability: 1.16
[2]; 0.4 µM
  viability: 1.11
[2]; 2 µM
  viability: 1.19
[2]; 10 µM
  viability: 1.08
[3]; 0.024 µM
  viability: 1.02
[3]; 0.12 µM
  viability: 1.14
[3]; 0.6 µM
  viability: 1.08
[3]; 3 µM
  viability: 1.04
[3]; 15 µM
  viability: 0.957
Selinexor; 0.008 µM
  viability: 0.885
Selinexor; 0.04 µM
  viability: 0.835
Selinexor; 0.2 µM
  viability: 0.811
Selinexor; 1 µM
  viability: 0.686
Selinexor; 5 µM
  viability: 0.532
[4]; 0.024 µM
  viability: 1.03
[4]; 0.12 µM
  viability: 0.999
[4]; 0.6 µM
  viability: 1.04
[4]; 3 µM
  viability: 0.933
[4]; 15 µM
  viability: 0.837
Filgotinib; 0.024 µM
  viability: 0.955
Filgotinib; 0.12 µM
  viability: 0.98
Filgotinib; 0.6 µM
  viability: 0.738
Filgotinib; 3 µM
  viability: 0.451
Filgotinib; 15 µM
  viability: 0.844
Thalidomide; 0.032 µM
  viability: 0.974
Thalidomide; 0.16 µM
  viability: 0.915
Thalidomide; 0.8 µM
  viability: 0.895
Thalidomide; 4 µM
  viability: 0.897
Thalidomide; 20 µM
  viability: 0.843

## primary T-NHL patient cells (S058)
Palbociclib; 0.024 µM
  viability: 1.15
Palbociclib; 0.12 µM
  viability: 1.32
Palbociclib; 0.6 µM
  viability: 1.08
Palbociclib; 3 µM
  viability: 0.899
Palbociclib; 15 µM
  viability: 0.538
Venetoclax; 0.00064 µM
  viability: 1.06
Venetoclax; 0.0032 µM
  viability: 1.13
Venetoclax; 0.016 µM
  viability: 0.921
Venetoclax; 0.08 µM
  viability: 0.718
Venetoclax; 0.4 µM
  viability: 0.547
Navitoclax; 0.0032 µM
  viability: 1.19
Navitoclax; 0.016 µM
  viability: 1.08
Navitoclax; 0.08 µM
  viability: 1.01
Navitoclax; 0.4 µM
  viability: 0.568
Navitoclax; 2 µM
  viability: 0.325
EPZ-6438; 0.024 µM
  viability: 1.21
EPZ-6438; 0.12 µM
  viability: 1.24
EPZ-6438; 0.6 µM
  viability: 1.03
EPZ-6438; 3 µM
  viability: 1.16
EPZ-6438; 15 µM
  viability: 0.95
I-BET-762; 0.008 µM
  viability: 1.17
I-BET-762; 0.04 µM
  viability: 1.03
I-BET-762; 0.2 µM
  viability: 0.904
I-BET-762; 1 µM
  viability: 0.816
I-BET-762; 5 µM
  viability: 0.61
CPI-169; 0.024 µM
  viability: 1.03
CPI-169; 0.12 µM
  viability: 1.06
CPI-169; 0.6 µM
  viability: 0.995
CPI-169; 3 µM
  viability: 1.05
CPI-169; 15 µM
  viability: 0.961
[1]; 0.024 µM
  viability: 0.89
[1]; 0.12 µM
  viability: 0.978
[1]; 0.6 µM
  viability: 1.14
[1]; 3 µM
  viability: 0.927
[1]; 15 µM
  viability: 0.909
Selinexor; 0.008 µM
  viability: 0.967
Selinexor; 0.04 µM
  viability: 0.877
Selinexor; 0.2 µM
  viability: 0.806
Selinexor; 1 µM
  viability: 0.709
Selinexor; 5 µM
  viability: 0.469
[4]; 0.024 µM
  viability: 1.02
[4]; 0.12 µM
  viability: 1.31
[4]; 0.6 µM
  viability: 1.07
[4]; 3 µM
  viability: 1.02
[4]; 15 µM
  viability: 1.08
Filgotinib; 0.024 µM
  viability: 0.912
Filgotinib; 0.12 µM
  viability: 0.985
Filgotinib; 0.6 µM
  viability: 0.904
Filgotinib; 3 µM
  viability: 0.875
Filgotinib; 15 µM
  viability: 0.524
Thalidomide; 0.032 µM
  viability: 1.03
Thalidomide; 0.16 µM
  viability: 1.02
Thalidomide; 0.8 µM
  viability: 1.07
Thalidomide; 4 µM
  viability: 1.14
Thalidomide; 20 µM
  viability: 1.02
